Source: the supplement of paper PMC11208160

Assay: recombinant barcode read abundance after kanamycin selection (control-corrected) (log10(CPM+1)); higher = more efficient recombination; sequences stand for … in AGTGCAGAGAAAATCGGCCAGTTTTCTCTGCCTGCAGTCCGCATGCCGT…AGATTTATGCAGCGGACTGCCTTTCTCCCAAAGTGATAAACCGGACAGTATCATGGACCGGTTTTCCCGGTAATCCGTATTTGCAAGGTTGGTTTCACT; site = the 11-nt target
How it was run: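 In E. coli, a pooled library matched targets to IS621 bridge RNA target-binding loops and was introduced alongside a donor plasmid. Cells went onto chloramphenicol/ampicillin/kanamycin with 0.1 mM IPTG or onto chloramphenicol/ampicillin LB agar as control, in duplicate. Recombination efficiency, from recombinant-junction barcodes as counts per million, is averaged and control-corrected. It is reported as log10(CPM+1).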
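Further: IS621 recombinase and bridge RNA in Escherichia coli cells.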

Sequence	recombinant barcode read abundance (log10)
GAGCAACCTTGGGTTCTAACCTGTTGCTT (site GAGCAACCTAA)	0.0979
GAGCAGGCTTGGGTTCTAACCTGTTGCTT (site AGTTCTCCTCG)	0.196
GAGCAGGCTTGGGTTCTAACCTGTTGCTT (site GAGCAGGCTAA)	0.661
GAGCCATCTTGGGTTCTAACCTGTTGCTT (site GAGCCATCTAA)	0.524
GAGCCATCTTGGGTTCTAACCTGTTGCTT (site GAGTCGTCTAA)	0.261
GAGCGCTCTTGGGTTCTAACCTGTTGCCG (site GAGCGCTCTCG)	0.754
GAGCGCTCTTGGGTTCTAACCTGTTGCCG (site GAGCGTTCTAG)	0.269
GAGGACTCTTGGGTTCTAACCTGTTGCCA (site GAGGACTCTAG)	1.46
GAGGACTCTTGGGTTCTAACCTGTTGCCA (site GAGGACTCTCG)	0.263
GAGGACTCTTGGGTTCTAACCTGTTGCCA (site GAGGACTCTGG)	0.824
GAGGACTCTTGGGTTCTAACCTGTTGCCA (site GAGGACTCTTG)	2.27
GAGGCTTCTTGGGTTCTAACCTGTTGCCT (site GAGGCTTCTAG)	0.42
GAGGCTTCTTGGGTTCTAACCTGTTGCCT (site GCGGCTTCTAG)	0.435
GAGGCTTCTTGGGTTCTAACCTGTTGCCT (site GGGGCTTCTAG)	0.184
GAGGCTTCTTGGGTTCTAACCTGTTGCCT (site GTGGCTTCTAG)	0.515
GAGGGAGCTTGGGTTCTAACCTGTTGCAT (site GAGAGAGCTAT)	1.33
GAGGGAGCTTGGGTTCTAACCTGTTGCAT (site GAGCGAGCTAT)	0.171
GAGGGAGCTTGGGTTCTAACCTGTTGCAT (site GAGGGAGCTAT)	2.43
GAGGGAGCTTGGGTTCTAACCTGTTGCAT (site GAGTGAGCTAT)	0.315
GAGGGGACTTGGGTTCTAACCTGTTGCAG (site GAGGGGACTCT)	2.76
GAGGGGACTTGGGTTCTAACCTGTTGCAG (site TCCTTCTCTAG)	0.307
GAGGTATCTTGGGTTCTAACCTGTTGCGT (site GAGGTATCTAC)	0.252

Sequence	recombinant barcode read abundance (log10)
GAGGTATCTTGGGTTCTAACCTGTTGCGT (site GAGGTATCTTG)	0.303
GAGGTATCTTGGGTTCTAACCTGTTGCTT (site GAGGTATCTAA)	0.35
GAGGTATCTTGGGTTCTAACCTGTTGCTT (site GAGGTATCTTA)	0.0893
GAGGTCACTTGGGTTCTAACCTGTTGCTA (site GAGGTCACTTA)	2.26
GAGGTCACTTGGGTTCTAACCTGTTGCTA (site TCTCCTCCTAT)	0.186
GAGGTCCCTTGGGTTCTAACCTGTTGCGG (site CTCCCTGCTAG)	0.2
GAGGTCCCTTGGGTTCTAACCTGTTGCGG (site GAGGTCCCTCC)	2.93
GAGTACACTTGGGTTCTAACCTGTTGCGC (site AGCGCGCCTCA)	0.0967
GAGTACACTTGGGTTCTAACCTGTTGCGC (site GAGTACACTGC)	2.53
GAGTACCCTTGGGTTCTAACCTGTTGCCT (site GAGTACCCTAG)	1.96
GAGTACCCTTGGGTTCTAACCTGTTGCCT (site GCGTACCCTAG)	0.162
GAGTACCCTTGGGTTCTAACCTGTTGCCT (site GGGTACCCTAG)	0.619
GAGTACCCTTGGGTTCTAACCTGTTGCCT (site GTGTACCCTAG)	0.0322
GAGTAGACTTGGGTTCTAACCTGTTGCTT (site GAGTAGACTAA)	1.64
GAGTAGACTTGGGTTCTAACCTGTTGCTT (site GAGTAGTCTAA)	1.22
GAGTATGCTTGGGTTCTAACCTGTTGCCT (site GAGTATGCTAG)	1.72
GAGTATGCTTGGGTTCTAACCTGTTGCCT (site GATTATGCTAG)	0.223
GAGTATTCTTGGGTTCTAACCTGTTGCCT (site GAATATTCTAG)	1.2
GAGTATTCTTGGGTTCTAACCTGTTGCCT (site GACTATTCTAG)	0.0264
GAGTATTCTTGGGTTCTAACCTGTTGCCT (site GAGTATTCTAG)	1.16
GAGTATTCTTGGGTTCTAACCTGTTGCCT (site GATTATTCTAG)	0.123
GAGTCGTCTTGGGTTCTAACCTGTTGCCT (site GAGTCGCCTAG)	0.193

Sequence	recombinant barcode read abundance (log10)
GAGTCGTCTTGGGTTCTAACCTGTTGCCT (site GAGTCGTCTAG)	1.78
GAGTCTACTTGGGTTCTAACCTGTTGCCA (site CCTATAGCTAA)	0.0951
GAGTCTACTTGGGTTCTAACCTGTTGCCA (site GAGTCTACTTG)	0.317
GAGTCTACTTGGGTTCTAACCTGTTGCCG (site GAGTCTACTCG)	0.562
GAGTCTACTTGGGTTCTAACCTGTTGCCG (site GAGTCTACTCT)	0.0936
GAGTTAACTTGGGTTCTAACCTGTTGCCG (site GAGTTAACTCG)	0.262
GAGTTAACTTGGGTTCTAACCTGTTGCCG (site GTGTGAACTCG)	0.0546
GAGTTCCCTTGGGTTCTAACCTGTTGCGT (site GAGTTACCTAC)	0.341
GAGTTCCCTTGGGTTCTAACCTGTTGCGT (site GAGTTCCCTAC)	2.66
GAGTTCCCTTGGGTTCTAACCTGTTGCGT (site GAGTTGCCTAC)	0.23
GAGTTCCCTTGGGTTCTAACCTGTTGCGT (site GAGTTTCCTAC)	0.0134
GAGTTGCCTTGGGTTCTAACCTGTTGCGT (site GAGTTACCTAC)	1.96
GAGTTGCCTTGGGTTCTAACCTGTTGCGT (site GAGTTCCCTAC)	0.108
GAGTTGCCTTGGGTTCTAACCTGTTGCGT (site GAGTTGCCTAC)	1.68
GAGTTGCCTTGGGTTCTAACCTGTTGCGT (site GAGTTTCCTAC)	0.0593
GAGTTTCCTTGGGTTCTAACCTGTTGCAG (site GAGCGTCCTCT)	0.118
GAGTTTCCTTGGGTTCTAACCTGTTGCAG (site GAGTTTCCTCT)	0.343
GATAGAGCTTGGGTTCTAACCTGTTGCCG (site GATAGAGCTCG)	0.772
GATAGAGCTTGGGTTCTAACCTGTTGCCG (site GATATAGCTAG)	0
GATAGGCCTTGGGTTCTAACCTGTTGCTT (site AATTGGCCTAA)	0.0314
GATAGGCCTTGGGTTCTAACCTGTTGCTT (site GATAGGCCTAA)	0.371
GATAGTACTTGGGTTCTAACCTGTTGCCT (site GATAGTACTAG)	1.48

Sequence	recombinant barcode read abundance (log10)
GATAGTACTTGGGTTCTAACCTGTTGCCT (site GATAGTCCTAG)	0.0718
GATAGTACTTGGGTTCTAACCTGTTGCCT (site GATAGTGCTAG)	0.0995
GATAGTACTTGGGTTCTAACCTGTTGCCT (site GATAGTTCTAG)	0.17
GATAGTTCTTGGGTTCTAACCTGTTGCCT (site GATAGTACTAG)	0.0904
GATAGTTCTTGGGTTCTAACCTGTTGCCT (site GATAGTCCTAG)	0.675
GATAGTTCTTGGGTTCTAACCTGTTGCCT (site GATAGTGCTAG)	0.132
GATAGTTCTTGGGTTCTAACCTGTTGCCT (site GATAGTTCTAG)	0.264
GATCATCCTTGGGTTCTAACCTGTTGCCT (site GATCATCCTAG)	0.364
GATCATCCTTGGGTTCTAACCTGTTGCCT (site GTTCATCCTAG)	0.0462
GATCCATCTTGGGTTCTAACCTGTTGCCT (site GATCCATCTAG)	0.561
GATCCATCTTGGGTTCTAACCTGTTGCCT (site GCTCCATCTAG)	0.251
GATCCATCTTGGGTTCTAACCTGTTGCCT (site GGTCCATCTAG)	0.209
GATCCATCTTGGGTTCTAACCTGTTGCCT (site GTTCCATCTAG)	0.142
GATCCGTCTTGGGTTCTAACCTGTTGCGG (site GATCCGTCTCC)	0.136
GATCCGTCTTGGGTTCTAACCTGTTGCGG (site GGTCCGGCTCC)	0.551
GATCCTACTTGGGTTCTAACCTGTTGCCT (site GATCCTACTAG)	1.14
GATCCTACTTGGGTTCTAACCTGTTGCCT (site GCTCCTACTAG)	0.0495
GATCCTACTTGGGTTCTAACCTGTTGCCT (site GGTCCTACTAG)	0.346
GATCCTACTTGGGTTCTAACCTGTTGCCT (site GTTCCTACTAG)	0.0681
GATCGATCTTGGGTTCTAACCTGTTGCGT (site GATCGATCTAA)	0.197
